Numbers after ± are expanded uncertainties.
Experiment: wn = mass fraction of the nth substance listed
Details: 298.15 K, 101 kPa, Liquid, Pycnometric method

Question: Which mass density (w1 = 0.3108) does the source give for `[Cl][Al]([Cl])[Cl]` [aluminum chloride] + O here?
Answer: 1314.6 ± 2.2 kg/m3

Question: For `[Ca+2].[Cl-].[Cl-]` [calcium chloride] + O, which mass density (w1 = 0.4647) is on record?
Answer: 1456.1 ± 2.3 kg/m3

Question: With `[Cl][Fe]([Cl])[Cl]` [ferric chloride] + O as the compound, how does the mass density (w1 = 0.5069) read?
Answer: 1521.5 ± 3.3 kg/m3
